Laboratory results reported in paper PMC6298115, “Design and in vitro realization of carbon-conserving photorespiration” (Proceedings of the National Academy of Sciences of the …, 2018).
Each block holds one molecule with its values, some of them ahead of it.

What was measured:
[1] = biological target: T1, RpPduP (Rhodopseudomonas palustris, UniProt Q21A49); assay: NADH oxidation, absorbance at […] nm; type: biochemical; details: pH 8.0 Hepes, 37 °C, 5 mM MgCl2
T1 construct: gene RPC_1174; N-terminal 6xHis, pET45a, expressed in E. coli BL21(DE3), Ni-NTA

[2] = biological target: T2, RpPduP (Rhodopseudomonas palustris, UniProt Q21A49, P164G/I199R/N203L/I222L/L268I/P269T/V271T/L423H, form not given); assay: NADH oxidation, absorbance at […] nm; type: biochemical; details: GCR; saturating acetyl-CoA; pH 8.0 Hepes, 37 °C, 5 mM MgCl2; Table 2 note numbers mutations +2; read-out: Engineered GCR
T2 construct: gene RPC_1174; N-terminal 6xHis, pET45a, expressed in E. coli BL21(DE3), Ni-NTA

[3] = biological target: T2, RpPduP; assay: NADPH oxidation, absorbance at […] nm; type: biochemical; details: GCR, pH 8.0 Hepes, 37 °C, 5 mM MgCl2, Table 2 note numbers mutations +2, read-out: Engineered GCR
[4] = biological target: T1, RpPduP; assay: NADPH oxidation, absorbance at […] nm; type: biochemical; details: pH 8.0 Hepes, 37 °C, 5 mM MgCl2
[5] = substrate: CC(=O)O; assay: purified protein; details: 1 mM CoA, 2.5 mM ATP, 5 mM MgCl2, 1 mM DTT, pH 8.0 Hepes, 37 °C

T1 sequence (Q21A49 entry or part of it): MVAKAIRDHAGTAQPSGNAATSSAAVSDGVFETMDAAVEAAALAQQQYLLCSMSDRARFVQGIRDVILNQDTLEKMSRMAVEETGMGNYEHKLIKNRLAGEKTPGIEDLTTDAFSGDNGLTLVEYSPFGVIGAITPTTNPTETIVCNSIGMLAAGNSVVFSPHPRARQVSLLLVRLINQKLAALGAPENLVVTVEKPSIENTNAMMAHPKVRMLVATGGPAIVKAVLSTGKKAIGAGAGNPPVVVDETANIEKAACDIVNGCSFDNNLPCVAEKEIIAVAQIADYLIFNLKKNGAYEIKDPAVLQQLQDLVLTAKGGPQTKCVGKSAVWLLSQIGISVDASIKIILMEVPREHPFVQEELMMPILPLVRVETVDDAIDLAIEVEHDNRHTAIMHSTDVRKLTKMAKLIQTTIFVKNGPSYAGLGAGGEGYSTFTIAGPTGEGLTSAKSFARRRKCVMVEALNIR
T2 sequence (Q21A49 entry or part of it P164G/I199R/N203L/I222L/L268I/P269T/V271T/L423H, form open): as the sequence (Q21A49 entry or part of it) above, with P164G, I199R, N203L, I222L, L268I, P269T, V271T, L423H counted along it

Km ([1]; saturating acetyl-CoA): 120 ± 30 µM
Km [2]: 70 ± 10 µM
Molecule: NC(=O)C1=CN([C@@H]2O[C@H](COP(=O)(O)OP(=O)(O)OC[C@H]3O[C@@H](n4cnc5c(N)ncnc54)[C@H](O)[C@@H]3O)[C@@H](O)[C@H]2O)C=CC1 [NADH]

Km ([3]; saturating glycolyl-CoA): 240 ± 60 µM
Km ([4]; saturating glycolyl-CoA): 370 ± 90 µM
Molecule: NC(=O)C1=CN([C@@H]2O[C@H](COP(=O)(O)OP(=O)(O)OC[C@H]3O[C@@H](n4cnc5c(N)ncnc54)[C@H](OP(=O)(O)O)[C@@H]3O)[C@@H](O)[C@H]2O)C=CC1 [NADPH]

Km ([3]; saturating NADPH): 220 ± 60 µM
Km ([4]; saturating NADPH): 220 ± 20 µM
Molecule: CC(=O)SCCNC(=O)CCNC(=O)[C@H](O)C(C)(C)COP(=O)(O)OP(=O)(O)OC[C@H]1O[C@@H](n2cnc3c(N)ncnc32)[C@H](O)[C@@H]1OP(=O)(O)O [acetyl-CoA]

Km ([3]; saturating NADPH): 240 ± 20 µM
Km ([1]; saturating NADH): 220 ± 120 µM
Molecule: CC(C)(COP(=O)(O)OP(=O)(O)OC[C@H]1O[C@@H](n2cnc3c(N)ncnc32)[C@H](O)[C@@H]1OP(=O)(O)O)[C@@H](O)C(=O)NCCC(=O)NCCSC(=O)CO [glycolyl-CoA]

B1: EcACS (Escherichia coli K-12) (protein)
chain: MSQIHKHTIPANIADRCLINPQQYEAMYQQSINVPDTFWGEQGKILDWIKPYQKVKNTSFAPGNVSIKWYEDGTLNLAANCLDRHLQENGDRTAIIWEGDDASQSKHISYKELHRDVCRFANTLLELGIKKGDVVAIYMPMVPEAAVAMLACARIGAVHSVIFGGFSPEAVAGRIIDSNSRLVITSDEGVRAGRSIPLKKNVDDALKNPNVTSVEHVVVLKRTGGKIDWQEGRDLWWHDLVEQASDQHQAEEMNAEDPLFILYTSGSTGKPKGVLHTTGGYLVYAALTFKYVFDYHPGDIYWCTADVGWVTGHSYLLYGPLACGATTLMFEGVPNWPTPARMAQVVDKHQVNILYTAPTAIRALMAEGDKAIEGTDRSSLRILGSVGEPINPEAWEWYWKKIGNEKCPVVDTWWQTETGGFMITPLPGATELKAGSATRPFFGVQPALVDNEGNPLEGATEGSLVITDSWPGQARTLFGDHERFEQTYFSTFKNMYFSGDGARRDEDGYYWITGRVDDVLNVSGHRLGTAEIESALVAHPKIAEAAVVGIPHNIKGQAIYAYVTLNHGEEPSPELYAEVRNWVRKEIGPLATPDVLHWTDSLPKTRSGKIMRRILRKIAAGDTSNLGDTSTLADPGVVEKLLEEKQAIAMPS
Km [5]: 87 ± 4 µM
kcat [5]: 13.5 s⁻¹
kcat/Km [5]: 155000 M⁻¹ s⁻¹
